From the supplement of paper PMC11208160

Assay: recombinant barcode read abundance after kanamycin selection (control-corrected) (log10(CPM+1)); higher = more efficient recombination; sequences stand for … in AGTGCAGAGAAAATCGGCCAGTTTTCTCTGCCTGCAGTCCGCATGCCGT…AGATTTATGCAGCGGACTGCCTTTCTCCCAAAGTGATAAACCGGACAGTATCATGGACCGGTTTTCCCGGTAATCCGTATTTGCAAGGTTGGTTTCACT; site = the 11-nt target
Summary of the method: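 Duplicate cultures were plated either on chloramphenicol/ampicillin LB agar, serving as control, or on chloramphenicol/ampicillin/kanamycin with 0.1 mM IPTG. These came from a pooled E. coli library co-electroporated with a donor plasmid, each member pairing a target with an IS621 bridge RNA target-binding loop. Recombination efficiency equals averaged, control-corrected counts per million of recombinant-junction barcodes. It is listed as log10(CPM+1).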
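Note: IS621 recombinase and bridge RNA in Escherichia coli cells.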

Point of comparison: “TCTGGGGCTTGGGTTCTAACCTGTTGCTG (site TCTGGGGCTCT)”, “recombinant barcode read abundance (log10)” value 0.936. Against it:
- TCTCGGCCTTGGGTTCTAACCTGTTGCCT (site TCTCTGCCTAG) — lower, 0.0561
- TCTGACTCTTGGGTTCTAACCTGTTGCAT (site TCTAATTCTAT) — lower, 0.0501
- TCTGACTCTTGGGTTCTAACCTGTTGCAT (site TCTGACTCTAT) — higher, 1.59
- TCTGAGTCTTGGGTTCTAACCTGTTGCTG (site GCTGAGGCTCA) — lower, 0.141
- TCTGAGTCTTGGGTTCTAACCTGTTGCTG (site TCTGAGTCTCA) — within 0.2 log units, 0.858
- TCTGGAGCTTGGGTTCTAACCTGTTGCAG (site CCAGGAGCTCT) — lower, 0.0636
- TCTGGAGCTTGGGTTCTAACCTGTTGCAG (site TCTGGAGCTCT) — within 0.2 log units, 0.938
- TCTGGGGCTTGGGTTCTAACCTGTTGCCG (site TCTGGGGCTCA) — lower, 0.536
- TCTGGGGCTTGGGTTCTAACCTGTTGCCG (site TCTGGGGCTCC) — higher, 1.44
- TCTGGGGCTTGGGTTCTAACCTGTTGCCG (site TCTGGGGCTCG) — higher, 1.89
- TCTGGGGCTTGGGTTCTAACCTGTTGCCG (site TCTGGGGCTCT) — lower, 0.618
- TCTGGGGCTTGGGTTCTAACCTGTTGCTG (site TCTGGGGCTCA) — higher, 2.04
- TCTGGGGCTTGGGTTCTAACCTGTTGCTG (site TCTGGGGCTCC) — lower, 0.216
- TCTGGGGCTTGGGTTCTAACCTGTTGCTG (site TCTGGGGCTCG) — within 0.2 log units, 0.792
- TCTTAGGCTTGGGTTCTAACCTGTTGCGT (site TCCTAGGCTGC) — lower, 0.21
- TCTTAGGCTTGGGTTCTAACCTGTTGCGT (site TCTTAGGCTAC) — higher, 1.63
- TCTTATACTTGGGTTCTAACCTGTTGCGT (site TCTTATACTAC) — lower, 0.403
- TCTTATACTTGGGTTCTAACCTGTTGCGT (site TCTTATACTAT) — lower, 0
- TCTTATTCTTGGGTTCTAACCTGTTGCCT (site TCTGATTCTCG) — lower, 0.062
- TCTTATTCTTGGGTTCTAACCTGTTGCCT (site TCTTATTCTAG) — lower, 0.0342
- TCTTGGACTTGGGTTCTAACCTGTTGCTG (site TCTTGGACTAA) — lower, 0.159
- TCTTGGACTTGGGTTCTAACCTGTTGCTG (site TCTTGGACTCA) — lower, 0.0828
- TCTTGGACTTGGGTTCTAACCTGTTGCTG (site TCTTGGACTGA) — lower, 0.174
- TCTTGGACTTGGGTTCTAACCTGTTGCTG (site TCTTGGACTTA) — lower, 0.0733
- TCTTGTTCTTGGGTTCTAACCTGTTGCCT (site ACTTGTTCTAG) — lower, 0.383
- TCTTGTTCTTGGGTTCTAACCTGTTGCCT (site CCTTGTTCTAG) — lower, 0.179
- TCTTGTTCTTGGGTTCTAACCTGTTGCCT (site GCTTGTTCTAG) — lower, 0.0895
- TCTTGTTCTTGGGTTCTAACCTGTTGCCT (site TCTTGTTCTAG) — lower, 0.145
- TGAAATACTTGGGTTCTAACCTGTTGCCT (site TGAAATACTAG) — lower, 0.232
- TGAAATACTTGGGTTCTAACCTGTTGCCT (site TGAACTACTAG) — lower, 0.0246
- TGAAATACTTGGGTTCTAACCTGTTGCCT (site TGAAGTACTAG) — lower, 0
- TGAAATACTTGGGTTCTAACCTGTTGCCT (site TGAATTACTAG) — lower, 0.00965
- TGAAATGCTTGGGTTCTAACCTGTTGCCT (site TGAAATGCTAG) — lower, 0.329
- TGAAATGCTTGGGTTCTAACCTGTTGCCT (site TGACATGCTAG) — lower, 0.0158
- TGAAATGCTTGGGTTCTAACCTGTTGCCT (site TGAGATGCTAG) — lower, 0.256
- TGAAATGCTTGGGTTCTAACCTGTTGCCT (site TGATATGCTAG) — lower, 0.288
- TGAACGCCTTGGGTTCTAACCTGTTGCCT (site AGTACGCCTAG) — lower, 0.0861
- TGAACGCCTTGGGTTCTAACCTGTTGCCT (site TGAACGCCTAG) — lower, 0.39
- TGAACGTCTTGGGTTCTAACCTGTTGCCT (site TGAAAGTCTAG) — lower, 0.232
- TGAACGTCTTGGGTTCTAACCTGTTGCCT (site TGAACGTCTAG) — lower, 0.384
- TGAACGTCTTGGGTTCTAACCTGTTGCCT (site TGAAGGTCTAG) — lower, 0.0344
- TGAACGTCTTGGGTTCTAACCTGTTGCCT (site TGAATGTCTAG) — lower, 0.378
